Measurements from patent US20230065462A1, “Pharmaceutical composition and use thereof” (HENAN TAIFENG BIOLOGICAL TECHNOLOGY CO., LTD., priority 2020, published 2023).
“Also recorded” adds a separate entry of the source.

What was measured:
Format in all cases: in vivo, Leghorn chickens
[1] = system: cockscomb; assay: Cockscomb hemangioma model: HE staining, histopathological changes under light microscope
Text: The clean grade of male Leghorn chickens were selected and randomly divided into a blank control group, a positive control group and a pharmaceutical composition groups A-I, a total of 11 groups, each with 8 chickens. Four points were selected for the cockscomb of each cock as the drug injection point, and the cockscomb was observed, photographed, and sampled before the experiment and 3 days, 7 days, 14 days, and 28 days after the experiment.
(§1) The experimental cocks were anesthetized through intramuscular injection of 0.1 mg/kg Sumianxin, fixed, and cleaned, and after being disinfected, each cockscomb was marked with gentian violet to form 4 circles with a diameter of 1 cm in turn on one side of the each cockscomb from front to back, and was injected at the center of each circle: the blank control group was injected with 0.5 mL of solvent (water for injection), the positive control group was injected with 0.5 mL of 5 mg/ml lauromacrogol injection, and the groups A-I were injected with 0.5 mL of the corresponding 13.2 mg/mL injection of compositions 1-9, respectively, and the standard is that the surface tissue of the cockscomb turns white and produces a skin hill. As the thickness of the cockscomb was 8˜10 mm, only one side of the cockscomb is injected subcutaneously, and the non-injected side of the contralateral side was used as the self-control group. After the injection, the cocks were continued to raise under uniform conditions, eaten and drunk freely until the material was obtained.
(§2) The tissues at the injection site were taken, fixed in 10% neutral formaldehyde fixative for 48 hours, embedded in paraffin, sectioned, stained with conventional HE, and examined by light microscope at 3 days, 7 days, 14 days, and 28 days after drug injection, respectively.

[2] = system: vascular endothelial cells; assay: Cockscomb hemangioma model: cell apoptosis detection (TUNEL method and computer image analysis); details: x±s, high-power field
Method: as §1
The TUNEL method is used for cell apoptosis detection including cell detection and tissue specimen detection. The principle is that deoxyuridine triphosphate is connected to the 3′-OH end of broken DNA in apoptotic cells by the catalysis of deoxyribonucleotide terminal transferase, and then is also bound to the luciferin antibody linked with horseradish peroxidase, and thus, the apoptotic cells can be accurately positioned through the bond of the luciferin antibody with the horseradish peroxidase substrate diaminobenzidine. […]

[3] = system: cockscomb capillaries; assay: Cockscomb hemangioma model: number of capillaries (HE staining and computer image analysis); details: x±s, high-power field
Method: as §1, §2
The processed tissue sections were sorted according to the number, and observed through an optical microscope. The changes in the number of blood vessels in each tissue section were observed under the adjusted high-power field of view (DABX400), and the changes in the number of apoptosis were observed by the TUNEL method. Five fields of view were randomly selected under the high-power field of view, and the image was analyzed using Tmage Proplus 6.0 software.
All data were processed with SPSS statistical software, and the data were expressed as x±s.

[4] = system: cockscomb; assay: Cockscomb hemangioma model: general (naked eye) observation of cockscomb after drug injection
Text: Animals: 88 Leghorn chickens of clean grade and raised under uniform feeding conditions in the same batch, male, weighing 1000 1500 g, 10 12 weeks old, provided by the Animal Experimental Center of Qinglongshan Animal Breeding Farm in Jiangning, Nanjing. The cockscomb is required to be plump, smooth, ruddy, and no lesion. All animals are reared in the same laboratory according to the requirements of clean grade, and they can eat and drink freely. The experimental process complies with the People's Republic of China “Regulations on the Management of Laboratory Animals” and ethical requirements. Test drugs: each component of the drug composition is commercially available. Citric acid, paeoniflorin, and gallic acid are mixed at the ratio described in the following table to obtain com[…]-I, respectively. Then, each composition was dissolved in water for injection to obtain an injection with a concentration of 13.2 mg/mL. The positive control group used lauromacrogol parenteral solution (Specification: 10 mL: 100 mg, Shaanxi Tianyu Pharmaceutical Co., Ltd.) as a sclerosing agent, and was prepared into a 5 mg/ml injection with water for injection before use. The clean grade of male Leghorn chickens were selected and randomly divided into a blank control group, a positive control group and a pharmaceutical composition groups A-I, a total of 11 groups, each with 8 chickens. Four points were selected for the cockscomb of each cock as the drug injection point, and the cockscomb was observed, photographed, and sampled before the experiment and 3 days, 7 days, 14 days, and 28 days after the experiment. […] As the thickness of the cockscomb was 8 10 mm, only one side of the cockscomb is injected subcutaneously, and the non-injected side of the contralateral side was used as the self-control group. After the injection, the cocks were continued to raise under uniform conditions, eaten and drunk freely until the material was obtained. Before drug injection, the general condition of the cockscomb, including shape, color, thickness, surface condition, etc., were observed and recorded with photos. After the drug injection, the observation was performed every day, and included: the color change of the cockscomb, whether the epidermis has white spots, whether the edema occurs, whether tissue necrosis occurs on the surface, whether scab occurs, whether scar occurs, and whether the scab falls off, and the time distribution of fall off. The observation were recorded by taking photos at four time points, i.e., 3 days, 7 days, 14 days, and 28 days after the drug injection, and meanwhile, the experimental cock was anesthetized and the tissues at the injection site were taken and examined by light microscope.

lauromacrogol [Positive control group]
The internal and external conditions of subcutaneous capillary lumens of cockscomb after drug injection ([1]; 3 d): inflammatory cells in the peripheral tissues were infiltrated, interstitial edema was obvious, and a small amount of collagen fibers proliferated | The morphology and number of subcutaneous capillaries of cockscomb after drug injection ([1]; 3 d): subcutaneous capillaries were destroyed and fused | The internal and external conditions of subcutaneous capillary lumens of cockscomb after drug injection ([1]; 7 d): collagen fibers were further proliferated, and inflammatory cells infiltrated and interstitial edema decreased | The morphology and number of subcutaneous capillaries of cockscomb after drug injection ([1]; 7 d): capillaries were further decreased | The internal and external conditions of subcutaneous capillary lumens of cockscomb after drug injection ([1]; 14 d): collagen fibers continued to proliferate | The morphology and number of subcutaneous capillaries of cockscomb after drug injection ([1]; 14 d): the number of blood vessels continued to decrease | The internal and external conditions of subcutaneous capillary lumens of cockscomb after drug injection ([1]; 28 d): filled with a large number of collagen fibers | The morphology and number of subcutaneous capillaries of cockscomb after drug injection ([1]; 28 d): the capillaries were significantly reduced | number of apoptotic cells ([2]; 3 d): 21.02 ± 3.56 | number of apoptotic cells ([2]; 7 d): 36.78 ± 3.87 | number of apoptotic cells ([2]; 14 d): 54.68 ± 3.65 | number of apoptotic cells ([2]; 28 d): 68.62 ± 3.27 | number of capillaries ([3]; 3 d): 47.05 ± 4.12 | number of capillaries ([3]; 7 d): 41.89 ± 4.25 | number of capillaries ([3]; 14 d): 36.59 ± 3.62 | number of capillaries ([3]; 28 d): 24.68 ± 4.33 | Cockscomb edema after drug injection ([4]; 0 d): no | The color and scab at the cockscomb injection site after drug injection ([4]; 0 d): white skin hills | Cockscomb appearance after drug injection ([4]; 0 d, 0.5 mL subcutaneous injection per point): normal | Cockscomb appearance after drug injection ([4]; 3 d): normal | Cockscomb edema after drug injection ([4]; 3 d): mild edema | The color and scab at the cockscomb injection site after drug injection ([4]; 3 d): dark red | Cockscomb appearance after drug injection ([4]; 7 d): normal | Cockscomb edema after drug injection ([4]; 7 d): the edema decreased | The color and scab at the cockscomb injection site after drug injection ([4]; 7 d): light yellow | Cockscomb appearance after drug injection ([4]; 14 d): normal | Cockscomb edema after drug injection ([4]; 14 d): the edema gradually decreased; also recorded: faintly edema | The color and scab at the cockscomb injection site after drug injection ([4]; 14 d): the center part of the drug injection site had a black scab, the surrounding part was yellow | Cockscomb appearance after drug injection ([4]; 28 d): normal | Cockscomb edema after drug injection ([4]; 28 d): with no edema and with scar | The color and scab at the cockscomb injection site after drug injection ([4]; 28 d): the black scab at the injection site fell off, became light yellow | appearance of the cockscomb ([4]; throughout the experiment): remained normal
